Measured values: PubChem BioAssay (NCI)
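Growth conditions: 96-well plates. Treatment: test compound, 48 hours, 5 concentrations. Analysis: linear interpolation between bracketing concentrations; unreached endpoints set to highest concentration. Here, GI50 denotes the concentration required for 50% inhibition of growth. TGI: total growth inhibition.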

How the values were obtained:
Assay in all cases: inhibition of tumour cell growth, NCI panel, 48 h
[1] = system: 786-0 renal
[2] = system: A498 renal
[3] = system: A549 NSCLC
[4] = system: ACHN renal
[5] = system: BT-549 breast
[6] = system: CAKI-1 renal
[7] = system: CCRF-CEM leukemia
[8] = system: COLO 205 colon
[9] = system: DU-145 prostate
[10] = system: EKVX NSCLC
[11] = system: HCC-2998 colon
[12] = system: HCT-116 colon
[13] = system: HCT-15 colon
[14] = system: HL-60(TB) leukemia
[15] = system: HOP-62 NSCLC
[16] = system: HOP-92 NSCLC
[17] = system: HS 578T breast
[18] = system: HT29 colon
[19] = system: IGROV1 ovarian
[20] = system: K-562 leukemia
[21] = system: KM12 colon
[22] = system: LOX IMVI melanoma
[23] = system: M14 melanoma
[24] = system: MALME-3M melanoma
[25] = system: MCF7 breast
[26] = system: MDA-MB-231 breast
[27] = system: MDA-MB-435
[28] = system: MOLT-4 leukemia
[29] = system: NCI-H226 lung
[30] = system: NCI-H23 lung
[31] = system: NCI-H460 lung
[32] = system: NCI-H522 lung
[33] = system: NCI/ADR-RES ovarian
[34] = system: OVCAR-3 ovarian
[35] = system: OVCAR-4 ovarian
[36] = system: OVCAR-5 ovarian
[37] = system: OVCAR-8 ovarian
[38] = system: PC-3 prostate
[39] = system: RPMI-8226 leukemia
[40] = system: RXF 393 renal
[41] = system: SF-268 CNS
[42] = system: SF-295 CNS
[43] = system: SF-539 CNS
[44] = system: SK-MEL-2 melanoma
[45] = system: SK-MEL-28 melanoma
[46] = system: SK-MEL-5 melanoma
[47] = system: SK-OV-3 ovarian
[48] = system: SN12C renal
[49] = system: SNB-19 CNS
[50] = system: SNB-75 CNS
[51] = system: SW-620 colon
[52] = system: T-47D breast
[53] = system: TK-10 renal
[54] = system: U251 CNS
[55] = system: UACC-257 melanoma
[56] = system: UACC-62 melanoma
[57] = system: UO-31 renal

Compound: Cc1nn(-c2ccccc2)c(-n2ccnc2)c1/C=N/Nc1nc(-c2ccc(Cl)c(Cl)c2)cs1
- GI50 [1]: 3.21 µM
- TGI [1]: 13.3 µM
- GI50 [2]: 7.98 µM
- TGI [2]: 35.9 µM
- GI50 [3]: 2.72 µM
- TGI [3]: 10 µM
- GI50 [4]: 3.97 µM
- TGI [4]: 16.9 µM
- GI50 [5]: 5.88 µM
- TGI [5]: 45 µM
- GI50 [6]: 5.55 µM
- TGI [6]: 20 µM
- GI50 [7]: 3.96 µM
- TGI [7]: > 100 µM
- GI50 [8]: 4.46 µM
- TGI [8]: > 100 µM
- GI50 [9]: 3.15 µM
- TGI [9]: 13.3 µM
- GI50 [10]: 5.7 µM
- TGI [10]: 36.5 µM
- GI50 [11]: 5.1 µM
- TGI [11]: 46.8 µM
- GI50 [12]: 1.9 µM
- TGI [12]: 4.75 µM
- GI50 [13]: 4.09 µM
- TGI [13]: > 100 µM
- GI50 [14]: 6.91 µM
- TGI [14]: > 100 µM
- GI50 [15]: 5.92 µM
- TGI [15]: 29.7 µM
- GI50 [16]: 0.214 µM
- TGI [16]: 3.49 µM
- GI50 [17]: 2.95 µM
- TGI [17]: 28.9 µM
- GI50 [18]: 4.99 µM
- TGI [18]: > 100 µM
- GI50 [19]: 6.07 µM
- TGI [19]: 26.2 µM
- GI50 [20]: 2.49 µM
- TGI [20]: > 100 µM
- GI50 [21]: 7.89 µM
- TGI [21]: > 100 µM
- GI50 [22]: 3.01 µM
- TGI [22]: 13.4 µM
- GI50 [23]: 4.11 µM
- TGI [23]: 30.6 µM
- GI50 [24]: 1.95 µM
- TGI [24]: 9.21 µM
- GI50 [25]: 2.17 µM
- TGI [25]: 6.37 µM
- GI50 [26]: 2.49 µM
- TGI [26]: 11.2 µM
- GI50 [27]: 84.7 µM
- TGI [27]: > 100 µM
- GI50 [28]: 7.33 µM
- TGI [28]: > 100 µM
- GI50 [29]: 1.91 µM
- TGI [29]: 10.8 µM
- GI50 [30]: 1.94 µM
- TGI [30]: 9.9 µM
- GI50 [31]: 3.04 µM
- TGI [31]: 10.7 µM
- GI50 [32]: 13.4 µM
- TGI [32]: 68.1 µM
- GI50 [33]: 2.31 µM
- TGI [33]: 9.02 µM
- GI50 [34]: 1.68 µM
- TGI [34]: 3.44 µM
- GI50 [35]: 1.48 µM
- TGI [35]: 3.76 µM
- GI50 [36]: 14.9 µM
- TGI [36]: 57.6 µM
- GI50 [37]: 3.44 µM
- TGI [37]: 22.3 µM
- GI50 [38]: 3.02 µM
- TGI [38]: 18.7 µM
- GI50 [39]: 0.65 µM
- TGI [39]: 8.83 µM
- GI50 [40]: 2.29 µM
- TGI [40]: 6.12 µM
- GI50 [41]: 9.37 µM
- TGI [41]: 37.5 µM
- GI50 [42]: 5.21 µM
- TGI [42]: 20.3 µM
- GI50 [43]: 3.66 µM
- TGI [43]: 14.2 µM
- GI50 [44]: 17.5 µM
- TGI [44]: 50.8 µM
- GI50 [45]: 3.89 µM
- TGI [45]: 19.7 µM
- GI50 [46]: 2.54 µM
- TGI [46]: 12.9 µM
- GI50 [47]: 23.5 µM
- TGI [47]: 69.4 µM
- GI50 [48]: 4.2 µM
- TGI [48]: 20.1 µM
- GI50 [49]: 16.2 µM
- TGI [49]: 92.3 µM
- GI50 [50]: 1.66 µM
- TGI [50]: 5.35 µM
- GI50 [51]: 3.36 µM
- TGI [51]: 53.4 µM
- GI50 [52]: 6.65 µM
- TGI [52]: > 100 µM
- GI50 [53]: 20.3 µM
- TGI [53]: 63.2 µM
- GI50 [54]: 4.28 µM
- TGI [54]: 20.7 µM
- GI50 [55]: 17.7 µM
- TGI [55]: 85.3 µM
- GI50 [56]: 7.6 µM
- TGI [56]: 31.9 µM
- GI50 [57]: 2.3 µM
- TGI [57]: 21.8 µM
